# Several values for one entry are separate records, joined by “and”; a condition that tells them apart may be missing. Identical values can stand only once.
# Biological target: PDE10A enzyme (Homo sapiens (Human), UniProt Q9Y233)
# Experiment: PDE10A inhibition assay
# Type: biochemical
# Conditions: tritium labeled cAMP 5 nM
# Protocol: Active PDE10A enzyme is prepared in a number of ways for use in PDE assays (Loughney, K. et al. Gene 1999, 234, 109-117; Fujishige, K. et al. Eur J Biochem. 1999, 266, 1118-1127 and Soderling, S. et al. Proc. Natl. Acad. Sci. 1999, 96, 7071-7076). PDE10A can be expressed as full-length proteins or as truncated proteins, as long as they express the catalytic domain. PDE10A can be prepared in different cell types, for example insect cells or E. coli. An example of a method to obtain catalytically active PDE10A is as follows: The catalytic domain of human PDE10A (amino acids 440-779 from the sequence with accession number NP 006652) is amplified from total human brain total RNA by standard RT-PCR and is cloned into the BamH1 and Xho1 sites of the pET28a vector (Novagen). Expression in coli is performed according to standard protocols. Briefly, the expression plasmids are transformed into the BL21(DE3) E. coli strain, and 50 mL cultures inoculated with the cells allowed to grow to an OD600 of 0.4-0.6 before protein expression is induced with 0.5 mM IPTG. Following induction, the cells are incubated overnight at room temperature, after which the cells are collected by centrifugation. Cells expressing PDE10A are resuspended in 12 mL (50 mM TRIS-HCl-pH8.0, 1 mM MgCl2 and protease inhibitors). The cells are lysed by sonication, and after all cells are lysed, TritonX100 is added according to Novagen protocols.
# A PDE10A assay may for example, be performed as follows: The assay is performed in 60 uL samples containing a fixed amount of the relevant PDE enzyme (sufficient to convert 20-25% of the cyclic nucleotide substrate), a buffer (50 mM HEPES7.6; 10 mM MgCl2; 0.02% Tween20), 0.1 mg/ml BSA, 225 pCi of ^3H-labelled cyclic nucleotide substrate, tritium labeled cAMP to a final concentration of 5 nM and varying amounts of inhibitors. Reactions are initiated by addition of the cyclic nucleotide substrate, and reactions are allowed to proceed for one hr at room temperature before being terminated through mixing with 15 uL 8 mg/mL yttrium silicate SPA beads (Amersham). The beads are allowed to settle for one hr in the dark before the plates are counted in a Wallac 1450 Microbeta counter. The measured signal can be converted to activity relative to an uninhibited control (100%) and IC50 values can be calculated using the XIfit extension to EXCEL.
# Sequence of PDE10A enzyme (Q9Y233 716-1055): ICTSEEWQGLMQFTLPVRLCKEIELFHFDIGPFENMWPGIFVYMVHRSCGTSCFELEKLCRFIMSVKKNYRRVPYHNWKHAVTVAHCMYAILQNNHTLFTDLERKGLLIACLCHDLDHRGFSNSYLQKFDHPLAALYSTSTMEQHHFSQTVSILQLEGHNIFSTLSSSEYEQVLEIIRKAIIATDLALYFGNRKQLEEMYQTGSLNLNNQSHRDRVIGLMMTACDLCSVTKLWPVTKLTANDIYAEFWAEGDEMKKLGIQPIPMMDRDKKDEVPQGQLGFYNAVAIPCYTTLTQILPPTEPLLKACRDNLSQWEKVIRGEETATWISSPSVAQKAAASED
row,SMILES,IC50
1,"Cc1cc(C)n2nc(CCc3ccc4ccccc4n3)nc2n1 [2-[2-(5,7-Dimethyl-[1,2,4]triazolo[1,5-a]pyrimidin-2-yl)-ethyl]-quinoline]",72 nM
2,"Cc1ncc(C)n2nc(CCc3cc(F)c4ccccc4n3)nc12 [2-[2-(5,8-Dimethyl-[1,2,4]triazolo[1,5-a]pyrazin-2-yl)-ethyl]-4-fluoro-quinoline]",28 nM
3,"COc1cc(CCc2nc3c(C)ncc(C)n3n2)nc2ccccc12 [2-[2-(5,8-Dimethyl-[1,2,4]triazolo[1,5-a]pyrazin-2-yl)-ethyl]-4-methoxy-quinoline]",12 nM
4,"Cc1ncc(C)n2nc(CCc3ccc4c(F)c(F)cc(F)c4n3)nc12 [2-[2-(5,8-Dimethyl-[1,2,4]triazolo[1,5-a]pyrazin-2-yl)-ethyl]-5,6,8-trifluoro-quinoline]",360 nM
5,"Cc1ncc(C)n2nc(CCc3ccc4c(F)cccc4n3)nc12 [2-[2-(5,8-Dimethyl-[1,2,4]triazolo[1,5-a]pyrazin-2-yl)-ethyl]-5-fluoro-quinoline]",120 nM
6,"COc1cc(CCc2nc3c(C)ncc(C)n3n2)nc2ccc(F)cc12 [2-[2-(5,8-Dimethyl-[1,2,4]triazolo[1,5-a]pyrazin-2-yl)-ethyl]-6-fluoro-4-methoxy-quinoline]",14 nM
7,"Cc1ncc(C)n2nc(CCc3ccc4cc(F)ccc4n3)nc12 [2-[2-(5,8-Dimethyl-[1,2,4]triazolo[1,5-a]pyrazin-2-yl)-ethyl]-6-fluoro-quinoline]",24 nM and 26 nM
8,"Cc1ncc(C)n2nc(CCc3ccc4ccc(F)cc4n3)nc12 [2-[2-(5,8-Dimethyl-[1,2,4]triazolo[1,5-a]pyrazin-2-yl)-ethyl]-7-fluoro-quinoline]",15 nM
9,"Cc1ncc(C)n2nc(CCc3ccc4ccc(C(F)(F)F)cc4n3)nc12 [2-[2-(5,8-Dimethyl-[1,2,4]triazolo[1,5-a]pyrazin-2-yl)-ethyl]-7-trifluoromethyl-quinoline]",240 nM
10,"Cc1ccc(O)c2nc(CCc3ccc4cc(F)ccc4n3)nn12 [2-[2-(6-Fluoro-quinolin-2-yl)-ethyl]-5-methyl-[1,2,4]triazolo[1,5-a]pyridin-8-ol]",85 nM
11,"COc1ccc(C)n2nc(CCc3ccc4ccccc4n3)nc12 [2-[2-(8-Methoxy-5-methyl-[1,2,4]triazolo[1,5-a]pyridin-2-yl)-ethyl]-quinoline]",12 nM
12,"Cc1ncc(C)n2nc(/C=C/c3ccc4cc(OC(F)(F)F)ccc4n3)nc12 [2-[(E)-2-(5,8-Dimethyl-[1,2,4]triazolo[1,5-a]pyrazin-2-yl)-vinyl]-6-trifluoromethoxy-quinoline]",2800 nM
13,"COc1ccc2ccc(/C=C/c3nc4c(C)ncc(C)n4n3)nc2c1 [2-[(E)-2-(5,8-Dimethyl-[1,2,4]triazolo[1,5-a]pyrazin-2-yl)-vinyl]-7-methoxy-quinoline]",13 nM
14,"Cc1ncc(C)n2nc(/C=C/c3ccc4ccc(C(F)(F)F)cc4n3)nc12 [2-[(E)-2-(5,8-Dimethyl-[1,2,4]triazolo[1,5-a]pyrazin-2-yl)-vinyl]-7-trifluoromethyl-quinoline]",550 nM
15,"Cc1cc(C)n2cc(/C=C\c3ccc4ccccc4n3)nc2n1 [2-[(Z)-2-(5,7-Dimethyl-imidazo[1,2-a]pyrimidin-2-yl)-vinyl]-quinoline]",240 nM
16,"COc1ccc(C)n2nc(/C=C/c3cc(Cl)c4cccc(F)c4n3)nc12 [4-Chloro-8-fluoro-2-[(E)-2-(8-methoxy-5-methyl-[1,2,4]triazolo[1,5-a]pyridin-2-yl)-vinyl]-quinoline]",270 nM
17,"Cc1cc(CCc2nc3cccc(C)n3n2)nc2ccccc12 [4-Methyl-2-[2-(5-methyl-[1,2,4]triazolo[1,5-a]pyridin-2-yl)-ethyl]-quinoline]",140 nM

# Further lines, results first:
row,IC50,SMILES
1,170 nM,"COc1ccc2nc(CCc3nc4nc(C)cc(C)n4n3)ccc2c1 [2-[2-(5,7-Dimethyl-[1,2,4]triazolo[1,5-a]pyrimidin-2-yl)-ethyl]-6-methoxy-quinoline]"
2,310 nM,"Cc1cc(C)n2cc(CCc3ccc4ccccc4n3)nc2n1 [2-[2-(5,7-Dimethyl-imidazo[1,2-a]pyrimidin-2-yl)-ethyl]-quinoline]"
3,18 nM,"Cc1cc(CCc2nc3c(C)ncc(C)n3n2)nc2ccccc12 [2-[2-(5,8-Dimethyl-[1,2,4]triazolo[1,5-a]pyrazin-2-yl)-ethyl]-4-methyl-quinoline]"
4,110 nM,"Cc1ncc(C)n2nc(CCc3ccc4c(F)cc(F)cc4n3)nc12 [2-[2-(5,8-Dimethyl-[1,2,4]triazolo[1,5-a]pyrazin-2-yl)-ethyl]-5,7-difluoro-quinoline]"
5,300 nM,"Cc1ncc(C)n2nc(CCc3ccc4cc(F)cc(F)c4n3)nc12 [2-[2-(5,8-Dimethyl-[1,2,4]triazolo[1,5-a]pyrazin-2-yl)-ethyl]-6,8-difluoro-quinoline]"
6,8.8 nM,"Cc1cc2nc(CCc3nc4c(C)ncc(C)n4n3)ccc2cc1F [2-[2-(5,8-Dimethyl-[1,2,4]triazolo[1,5-a]pyrazin-2-yl)-ethyl]-6-fluoro-7-methyl-quinoline]"
7,2000 nM,"Cc1cc(F)cc2ccc(CCc3nc4c(C)ncc(C)n4n3)nc12 [2-[2-(5,8-Dimethyl-[1,2,4]triazolo[1,5-a]pyrazin-2-yl)-ethyl]-6-fluoro-8-methyl-quinoline]"
8,410 nM,"Cc1ncc(C)n2nc(CCc3cc(O)c4cc(F)ccc4n3)nc12 [2-[2-(5,8-Dimethyl-[1,2,4]triazolo[1,5-a]pyrazin-2-yl)-ethyl]-6-fluoro-quinolin-4-ol]"
9,26 nM,"COc1cc(CCc2nc3c(C)ncc(C)n3n2)nc2cc(F)ccc12 [2-[2-(5,8-Dimethyl-[1,2,4]triazolo[1,5-a]pyrazin-2-yl)-ethyl]-7-fluoro-4-methoxy-quinoline]"
10,500 nM,"Cc1ncc(C)n2nc(CCc3cc(O)c4ccc(F)cc4n3)nc12 [2-[2-(5,8-Dimethyl-[1,2,4]triazolo[1,5-a]pyrazin-2-yl)-ethyl]-7-fluoro-quinolin-4-ol]"
11,19 nM,"Cc1ncc(C)n2nc(CCc3ccc4ccccc4n3)nc12 [2-[2-(5,8-Dimethyl-[1,2,4]triazolo[1,5-a]pyrazin-2-yl)-ethyl]-quinoline]"
12,24 nM,"Cc1ccc(C)n2nc(CCc3ccc4ccccc4n3)nc12 [2-[2-(5,8-Dimethyl-[1,2,4]triazolo[1,5-a]pyridin-2-yl)-ethyl]-quinoline]"
13,61 nM,"Cc1cnc(C)n2nc(CCc3ccc4cc(C(C)C)ccc4n3)nc12 [2-[2-(5,8-Dimethyl-[1,2,4]triazolo[1,5-c]pyrimidin-2-yl)-ethyl]-6-isopropyl-quinoline]"
14,25 nM,"CCc1ccc(C)n2nc(CCc3ccc4cc(F)ccc4n3)nc12 [2-[2-(8-Ethyl-5-methyl-[1,2,4]triazolo[1,5-a]pyridin-2-yl)-ethyl]-6-fluoro-quinoline]"
15,42 nM,"COc1ccc(C)n2nc(CCc3cc(C)c4ccccc4n3)nc12 [2-[2-(8-Methoxy-5-methyl-[1,2,4]triazolo[1,5-a]pyridin-2-yl)-ethyl]-4-methyl-quinoline]"
16,320 nM,"Cc1cc(C)n2cc(/C=C/c3ccc4ccccc4n3)nc2n1 [2-[(E)-2-(5,7-Dimethyl-imidazo[1,2-a]pyrimidin-2-yl)-vinyl]-quinoline]"
17,19 nM,"COc1cccc2nc(/C=C/c3nc4c(C)ncc(C)n4n3)ccc12 [2-[(E)-2-(5,8-Dimethyl-[1,2,4]triazolo[1,5-a]pyrazin-2-yl)-vinyl]-5-methoxy-quinoline]"
18,2100 nM,"Cc1ncc(C)n2nc(/C=C/c3ccc4cc(C#N)ccc4n3)nc12 [2-[(E)-2-(5,8-Dimethyl-[1,2,4]triazolo[1,5-a]pyrazin-2-yl)-vinyl]-6-cyano-quinoline]"
19,190 nM,"Cc1ncc(C)n2nc(/C=C/c3ccc4cc(F)ccc4n3)nc12 [2-[(E)-2-(5,8-Dimethyl-[1,2,4]triazolo[1,5-a]pyrazin-2-yl)-vinyl]-6-fluoro-quinoline]"
20,490 nM,"Cc1ncc(C)n2nc(/C=C/c3ccc4cc(C(F)(F)F)ccc4n3)nc12 [2-[(E)-2-(5,8-Dimethyl-[1,2,4]triazolo[1,5-a]pyrazin-2-yl)-vinyl]-6-trifluoromethyl-quinoline]"
21,190 nM,"COc1cc(CCc2nc3cccc(C)n3n2)nc2ccccc12 [4-Methoxy-2-[2-(5-methyl-[1,2,4]triazolo[1,5-a]pyridin-2-yl)-ethyl]-quinoline]"
22,35 nM,"COc1cc(CCc2nc3c(OC)ccc(C)n3n2)nc2ccccc12 [4-Methoxy-2-[2-(8-methoxy-5-methyl-[1,2,4]triazolo[1,5-a]pyridin-2-yl)-ethyl]-quinoline]"
23,39 nM,"Cc1ncc(C)n2nc(CCc3ccc4c(Cl)cc(Cl)cc4n3)nc12 [5,7-Dichloro-2-[2-(5,8-dimethyl-[1,2,4]triazolo[1,5-a]pyrazin-2-yl)-ethyl]-quinoline]"
